One test deals with T1, PI3K beta (Homo sapiens, UniProt P42338).
T1 construct: for the full-length p110-b subunit are generated and fused by overlapping PCR; p85(iSH2) fusion partner (see partner chain) (N); His tag (C); made in house; host or cells: baculovirus; Tn5 (Trichoplusia ni) or TiniPro insect cells
Kind of test: PI3K beta kinase assay (Kinase-Glo luminescence). Format: biochemical. The procedure, abridged:
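Residual ATP after a 60 min room-temperature reaction is quantified by Kinase-Glo luminescence. Enzyme: 25 nM BV-949 (p85 iSH2–linker–full-length p110β); substrates 1 μM ATP, 10 μg/mL PI; buffer Tris pH 7.5, MgCl2, NaCl, CHAPS, DTT. Eight concentrations per compound, four-parameter logistic IC50.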
In general terms: In Kinase-Glo more light means more ATP remaining.

A further test addresses T2, PI3K alpha (Homo sapiens, UniProt P42336).
T2 construct: p85(iSH2) fusion partner (see partner chain) (N); His tag (C); made in house; host or cells: baculovirus; Tn5 (Trichoplusia ni) or TiniPro insect cells
Kind of test: PI3K alpha kinase assay (Kinase-Glo luminescence). Format: biochemical. An outline of the steps: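 Luminescent ATP-depletion assay (Kinase-Glo) with 10 nM PI3Kα and 10 μg/mL phosphatidylinositol as lipid substrate at 1 μM ATP. Incubation lasts 60 min at room temperature.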

The test system of test [1] is PKB Ser473 phosphorylation in Rat1-myr-HA-p110 beta cells. Kind of test: Reverse protein array assay, PKB Ser473 phosphorylation in Rat1-myr-p110 beta cells. Format: cell-based. Conditions: 0.5 h, pAkt Ser473, 30 minutes incubation, read-out: p-PKB IC50. An outline of the steps: (§1)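 Rat1 cells expressing myristoylated HA-tagged p110 alpha, beta or delta were plated for at least 20 h, then exposed to 8-step serial compound dilutions (0.2% DMSO final) for 30 min at 37 °C. Lysates were spotted at four dilutions on protein microarrays, and relative fluorescence intensity of phospho-Ser473 PKB was calculated.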

Test [2] concerns PKB Ser473 phosphorylation in Rat1-myr-HA-p110 delta cells. Nature of the test: Reverse protein array assay, PKB Ser473 phosphorylation in Rat1-myr-p110 delta cells. Format: cell-based. The note with it: read-out: p-PKB IC50. An outline of the steps: as §1
Test [3] relates to PKB Ser473 phosphorylation in Rat1-myr-HA-p110 alpha cells. Kind of test: Reverse protein array assay, PKB Ser473 phosphorylation in Rat1-myr-p110 alpha cells. Format: cell-based. The note with it: 0.5 h, pAkt Ser473, 30 minutes compound incubation, read-out: p-PKB IC50. An outline of the steps:
as §1

Structures are written as SMILES.

T2 sequence (P42336 with tags, fused parts or gaps limits assumed): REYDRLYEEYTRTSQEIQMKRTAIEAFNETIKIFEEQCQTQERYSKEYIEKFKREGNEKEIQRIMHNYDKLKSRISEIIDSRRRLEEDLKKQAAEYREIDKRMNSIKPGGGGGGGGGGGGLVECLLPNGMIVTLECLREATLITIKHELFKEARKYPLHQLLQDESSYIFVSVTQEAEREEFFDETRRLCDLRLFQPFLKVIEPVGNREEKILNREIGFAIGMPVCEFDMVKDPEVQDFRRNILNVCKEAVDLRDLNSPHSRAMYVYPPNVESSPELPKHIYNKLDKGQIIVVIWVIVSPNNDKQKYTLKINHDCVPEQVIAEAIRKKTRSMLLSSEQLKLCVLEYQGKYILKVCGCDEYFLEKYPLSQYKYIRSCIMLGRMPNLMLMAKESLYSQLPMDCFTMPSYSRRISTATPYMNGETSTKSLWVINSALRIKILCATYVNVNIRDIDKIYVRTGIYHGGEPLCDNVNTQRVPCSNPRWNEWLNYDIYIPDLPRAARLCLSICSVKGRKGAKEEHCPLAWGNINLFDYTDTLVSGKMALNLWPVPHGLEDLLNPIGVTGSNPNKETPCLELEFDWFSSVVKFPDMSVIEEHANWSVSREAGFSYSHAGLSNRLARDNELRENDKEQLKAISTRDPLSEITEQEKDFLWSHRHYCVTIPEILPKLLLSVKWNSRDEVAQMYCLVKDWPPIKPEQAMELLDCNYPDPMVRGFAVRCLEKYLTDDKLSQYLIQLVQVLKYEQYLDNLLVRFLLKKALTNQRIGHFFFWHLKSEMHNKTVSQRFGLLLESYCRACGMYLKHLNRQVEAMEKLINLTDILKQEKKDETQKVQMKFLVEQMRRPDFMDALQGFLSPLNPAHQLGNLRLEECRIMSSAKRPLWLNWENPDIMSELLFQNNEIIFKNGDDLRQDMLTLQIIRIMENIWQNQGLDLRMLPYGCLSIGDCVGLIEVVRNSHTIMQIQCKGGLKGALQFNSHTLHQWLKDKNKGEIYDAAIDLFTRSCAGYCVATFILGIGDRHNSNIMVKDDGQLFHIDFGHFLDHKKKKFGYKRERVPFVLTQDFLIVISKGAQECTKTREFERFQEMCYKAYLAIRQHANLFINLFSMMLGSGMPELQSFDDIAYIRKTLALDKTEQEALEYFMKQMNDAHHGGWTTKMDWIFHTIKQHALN
T1 sequence (P42338 with tags, fused parts or gaps limits assumed): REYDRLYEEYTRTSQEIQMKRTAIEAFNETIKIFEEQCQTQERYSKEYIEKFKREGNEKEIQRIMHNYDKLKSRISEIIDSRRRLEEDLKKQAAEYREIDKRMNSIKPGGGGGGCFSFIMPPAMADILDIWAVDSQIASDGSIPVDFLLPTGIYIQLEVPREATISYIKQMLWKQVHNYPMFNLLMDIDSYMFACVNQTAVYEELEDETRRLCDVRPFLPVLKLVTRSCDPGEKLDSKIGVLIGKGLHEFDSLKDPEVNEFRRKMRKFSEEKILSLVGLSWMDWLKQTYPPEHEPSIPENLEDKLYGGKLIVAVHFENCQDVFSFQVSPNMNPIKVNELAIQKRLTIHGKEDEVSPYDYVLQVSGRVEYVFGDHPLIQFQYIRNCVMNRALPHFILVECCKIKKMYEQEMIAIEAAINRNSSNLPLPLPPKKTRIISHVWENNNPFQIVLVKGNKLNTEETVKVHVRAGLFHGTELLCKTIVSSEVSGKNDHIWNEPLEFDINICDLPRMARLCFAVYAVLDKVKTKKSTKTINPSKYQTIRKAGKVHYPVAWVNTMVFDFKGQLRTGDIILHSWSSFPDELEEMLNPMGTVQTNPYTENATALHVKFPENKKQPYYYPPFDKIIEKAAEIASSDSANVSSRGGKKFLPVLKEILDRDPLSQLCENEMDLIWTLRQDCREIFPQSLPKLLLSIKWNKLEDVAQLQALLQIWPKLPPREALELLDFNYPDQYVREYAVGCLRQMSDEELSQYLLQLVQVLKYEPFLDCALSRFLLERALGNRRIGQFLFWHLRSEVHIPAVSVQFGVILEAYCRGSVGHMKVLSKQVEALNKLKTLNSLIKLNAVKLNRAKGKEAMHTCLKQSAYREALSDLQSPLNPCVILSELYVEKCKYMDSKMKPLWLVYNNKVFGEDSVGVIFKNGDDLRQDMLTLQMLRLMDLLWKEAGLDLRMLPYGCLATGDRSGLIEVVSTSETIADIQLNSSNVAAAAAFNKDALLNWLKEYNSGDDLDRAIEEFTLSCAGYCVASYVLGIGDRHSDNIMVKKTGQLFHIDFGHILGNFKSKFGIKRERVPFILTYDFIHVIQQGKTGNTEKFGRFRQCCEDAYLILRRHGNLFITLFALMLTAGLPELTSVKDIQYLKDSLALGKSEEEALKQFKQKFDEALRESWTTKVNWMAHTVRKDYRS

In general, IC50 refers to the concentration that inhibits the measured activity by half. With `CCNc1cc(-c2ccc3ncc4c(c3c2)n(-c2c(C)nn(CCOC)c2C)c(=O)n4C)cnc1C` [Example 87.4, 8-(5-Ethylamino-6-methyl-pyridin-3-yl)-1-[1-(2-methoxy-ethyl)-3,5-dimethyl-1H-pyrazol-4-yl]-3-methyl-1,3-dihydro-imidazo[4,5-c]quinolin-2-one], the IC50 at PI3K beta was 93 nM; at PI3K alpha, 42 nM; in test [1], 85 nM; in test [2] it was 91 nM; in test [3] it was 33 nM.

With `Cc1nn(C(C)C)cc1-n1c(=O)n(C)c2cnc3ccc(-c4cnc(N)c(C(F)(F)F)c4)cc3c21` [Example 25.4, 8-(6-Amino-5-trifluoromethyl-pyridin-3-yl)-1-(1-isopropyl-3-methyl-1H-pyrazol-4-yl)-3-methyl-1,3-dihydro-imidazo[4,5-c]quinolin-2-one], the IC50 on PI3K beta was 16 nM; on PI3K alpha it was 12 nM; in test [1] it was 7 nM; in test [2], 9 nM; in test [3], < 5 nM.

As to `C=CCn1c(=O)n(-c2cn(C)nc2C)c2c3cc(-c4cncc(N)c4)ccc3ncc21` [Example 246, 3-Allyl-8-(5-amino-pyridin-3-yl)-1-(1,3-dimethyl-1H-pyrazol-4-yl)-1,3-dihydro-imidazo[4,5-c]quinolin-2-one], the IC50 on PI3K beta stood at 82 nM; at PI3K alpha it was 28 nM; in test [1], 294 nM; in test [2], 837 nM; in test [3] it was 227 nM.

On to `COc1ccc(-c2ccc3ncc4c(c3c2)n(-c2ccnn2C)c(=O)n4C)cn1` [Example 2.2, 8-(6-Methoxy-pyridin-3-yl)-3-methyl-1-(2-methyl-2H-pyrazol-3-yl)-1,3-dihydro-imidazo[4,5-c]quinolin-2-one], for which the half-maximal inhibitory concentration (IC50) at PI3K beta came out at 278 nM; on PI3K alpha it was 62 nM; in test [1], 553 nM; in test [2] it was 541 nM; in test [3], 159 nM.

Consider `Cc1nn(C)cc1-n1c(=O)n(C)c2cnc3ccc(-c4cncc(C(C)O)c4)cc3c21` (racemic) [Example 217, (rac)-1-(1,3-Dimethyl-1H-pyrazol-4-yl)-8-[5-(1-hydroxy-ethyl)-pyridin-3-yl]-3-methyl-1,3-dihydro-imidazo[4,5-c]quinolin-2-one], for which the IC50 is 13 nM on PI3K beta; 8 nM on PI3K alpha; 161 nM in test [1]; 249 nM in test [2]; 108 nM in test [3].

On to `Cc1nn(C)cc1-n1c(=O)n(C)c2cnc3ccc(-c4cnc(CO)c(Cl)c4)cc3c21` [Example 238, 8-(5-Chloro-6-hydroxymethyl-pyridin-3-yl)-1-(1,3-dimethyl-1H-pyrazol-4-yl)-3-methyl-1,3-dihydro-imidazo[4,5-c]quinolin-2-one], for which the IC50 on PI3K beta amounted to 103 nM; on PI3K alpha, 29 nM; in test [1], 116 nM; in test [2], 327 nM; in test [3], 32 nM.

On to `CNc1cc(-c2ccc3ncc4c(c3c2)n(-c2cn(C)nc2C)c(=O)n4C)cnc1CO` [Example 158.1, 1-(1,3-Dimethyl-1H-pyrazol-4-yl)-8-(6-hydroxymethyl-5-methylamino-pyridin-3-yl)-3-methyl-1,3-dihydro-imidazo[4,5-c]quinolin-2-one], for which the half-inhibitory concentration (IC50) was determined as 10 nM at PI3K beta; 9 nM on PI3K alpha; 17 nM in test [1]; 45 nM in test [2]; 6 nM in test [3].

With `Cc1nn(C)c(C)c1-n1c(=O)n(C)c2cnc3ccc(-c4cnc(N)c(C(F)(F)F)c4)cc3c21` [Example 25.3, 8-(6-Amino-5-trifluoromethyl-pyridin-3-yl)-3-methyl-1-(1,3,5-trimethyl-1H-pyrazol-4-yl)-1,3-dihydro-imidazo[4,5-c]quinolin-2-one], the half-inhibitory concentration (IC50) was 48 nM on PI3K beta; 59 nM on PI3K alpha; 73 nM in test [1]; 59 nM in test [2]; 25 nM in test [3].

As for `Cc1nn(CC(=O)N(C)C)c(C)c1-n1c(=O)n(C)c2cnc3ccc(-c4ccc(-n5cccn5)cc4)cc3c21` [Example 51.4, 2-{3,5-Dimethyl-4-[3-methyl-2-oxo-8-(4-pyrazol-1-yl-phenyl)-2,3-dihydro-imidazo[4,5-c]quinolin-1-yl]pyrazol-1-yl}-N,N-dimethyl-acetamide], the IC50 at PI3K alpha was 22 nM; in test [2] it was 223 nM; in test [3] it was 14 nM.

Regarding `CCOc1ccc(-c2ccc3ncc4c(c3c2)n(-c2cn(CCOC)nc2C)c(=O)n4C)cn1` [Example 131, 8-(6-Ethoxy-pyridin-3-yl)-1-[1-(2-methoxy-ethyl)-3-methyl-1H-pyrazol-4-yl]-3-methyl-1,3-dihydro-imidazo[4,5-c]quinolin-2-one], the half-inhibitory concentration (IC50) at PI3K alpha amounted to 161 nM; in test [1], 29 nM; in test [2] it was 127 nM; in test [3], 41 nM.

For the compound `CCn1cc(-n2c(=O)n(C)c3cnc4ccc(-c5ccc(COC)nc5)cc4c32)c(C)n1` [Example 104, 1-(1-Ethyl-3-methyl-1H-pyrazol-4-yl)-8-(6-methoxymethyl-pyridin-3-yl)-3-methyl-1,3-dihydro-imidazo[4,5-c]quinolin-2-one], the IC50 on PI3K alpha was 79 nM; in test [1], 37 nM; in test [2], 110 nM; in test [3] it was 71 nM.

`Cc1nn(C)cc1-n1c(=O)n(C)c2cnc3ccc(-c4cccc(OC(C)C)c4F)cc3c21` [Example 83, 1-(1,3-Dimethyl-1H-pyrazol-4-yl)-8-(2-fluoro-3-isopropoxy-phenyl)-3-methyl-1,3-dihydro-imidazo[4,5-c]quinolin-2-one]: the concentration for half-maximal inhibition (IC50) at PI3K alpha was 74 nM; in test [1], 353 nM; in test [2] it was 508 nM; in test [3], 197 nM.

As for `COCCNC(=O)c1cc(-c2ccc3ncc4c(c3c2)n(-c2cn(C)nc2C)c(=O)n4C)cnc1N` [Example 226, 2-Amino-5-[1-(1,3-dimethyl-1H-pyrazol-4-yl)-3-methyl-2-oxo-2,3-dihydro-1H-imidazo[4,5-c]quinolin-8-yl]-N-(2-methoxy-ethyl)-nicotinamide], the IC50 is 71 nM on PI3K beta, 33 nM at PI3K alpha, 457 nM in test [1] and 433 nM in test [2].

With `Cc1nn(C)cc1-n1c(=O)n(C)c2cnc3ccc(-c4ccc(OCC5CC5)nc4)cc3c21` [Example 42, 8-(6-Cyclopropylmethoxy-pyridin-3-yl)-1-(1,3-dimethyl-1H-pyrazol-4-yl)-3-methyl-1,3-dihydro-imidazo[4,5-c]quinolin-2-one], the IC50 on PI3K alpha came out at 70 nM; in test [1] it was 66 nM; in test [2] it was 158 nM; in test [3], 36 nM.

On to `Cc1nn(C)cc1-n1c(=O)n(C)c2cnc3ccc(-c4ccc5c(c4)CCN5C)cc3c21` [Example 50, 1-(1,3-Dimethyl-1H-pyrazol-4-yl)-3-methyl-8-(1-methyl-2,3-dihydro-1H-indol-5-yl)-1,3-dihydro-imidazo[4,5-c]quinolin-2-one], for which the IC50 at PI3K alpha was found to be 188 nM; in test [1] it was 119 nM; in test [2], 570 nM; in test [3], 72 nM.

`Cc1cc(-n2c(=O)n(C)c3cnc4ccc(-c5cncc(N6CCOCC6)c5)cc4c32)n(C)n1` [Example 175.2, 1-(2,5-Dimethyl-2H-pyrazol-3-yl)-3-methyl-8-(5-morpholin-4-yl-pyridin-3-yl)-1,3-dihydro-imidazo[4,5-c]quinolin-2-one]: the IC50 worked out at 199 nM at PI3K alpha, 161 nM in test [1], 360 nM in test [2] and 59 nM in test [3].

Turning to `Cc1nn(CC(=O)N(C)C)c(C)c1-n1c(=O)n(C)c2cnc3ccc(-c4cnc(N)c(C(F)(F)F)c4)cc3c21` [Example 25.2, 2-{4-[8-(6-Amino-5-trifluoromethyl-pyridin-3-yl)-3-methyl-2-oxo-2,3-dihydro-imidazo[4,5-c]quinolin-1-yl]-3,5-dimethyl-pyrazol-1-yl}-N,N-dimethyl-acetamide], the IC50 at PI3K beta came out at 578 nM; at PI3K alpha, 13 nM; in test [2], 247 nM; in test [3], 90 nM.

Turning to `CCN(CC)C(=O)Cn1cc(-n2c(=O)n(C)c3cnc4ccc(-c5cnc(N6CCCC6)nc5)cc4c32)c(C)n1` [Example 247.1, N,N-Diethyl-2-{3-methyl-4-[3-methyl-2-oxo-8-(2-pyrrolidin-1-yl-pyrimidin-5-yl)-2,3-dihydro-imidazo[4,5-c]quinolin-1-yl]-pyrazol-1-yl}-acetamide], the IC50 at PI3K alpha amounted to 93 nM; in test [1] it was 52 nM; in test [2], 157 nM; in test [3], 28 nM.

For the origin of these results see patent US20140005163A1 (NOVARTIS AG, priority 2010, published 2014).
